From patent US20240368147A1, “CYCLIN K DEGRADER” (ADLAI NORTYE BIOPHARMA CO., LTD., priority 2021, published 2024)

Tested on: HGC27 (Human Gastric Cancer Cell)
Test: HGC27 cell growth inhibition (CellTiter-Glo)
Assay type: cell-based
Settings: HGC27 cells, 24 hours, CellTiter-Glo; read-out: HGC27 CTG IC50
Protocol: Biological Activity Detection of HGC27 (Human Gastric Cancer Cell) Cell Growth Inhibition
This detection method is used to evaluate the cellular level biological activity of the compounds of the present disclosure.
Harvest HGC27 cells (purchased from Chinese Academy of Sciences), resuspend in complete culture medium and adjust the cell density to 0.2×10^6 cells per ml. Add 100 μL of cell suspension to each well into a 96-well plate and incubate overnight in a 37° C., 5% CO2 incubator. Prepare the compound to be tested and add it to the cell plate so that the maximum concentration of the compound is 10 μM. Set 8 concentration points according to 3-fold dilution. At the same time, set up a 100% inhibition control well, that is, a well with no cells added and only an equal volume of complete culture medium; and a 0% inhibition control well, that is, a cell well with 0.1% DMSO added. The above cell plate was cultured at 37° C. and 5% CO2 for 24 hours. Take out the cell culture plate, add 25 μl CellTiter-Glo® Luminescent Cell Viability reagent (promega cat #G7573) to each well, incubate in the dark for 10 minutes, transfer 100 μL to a white plate, and use Molecular Devices SpectraMax i3 to detect chemiluminescence. Data processing uses the following formula to calculate the inhibition rate: compound inhibition rate=(0% inhibition of control well signal−compound treatment well signal)/(0% inhibition of control well signal−100% inhibition of control well signal)*100%. The calculated data were fitted using graphpad prism software with four parameters and the corresponding IC50 was calculated.
According to the above detection method, the biological activity of the compound of the present disclosure was evaluated at the cellular level. Wherein, CR8 is a literature compound, which was purchased from Shanghai Bide Pharmaceutical.

Row | IC50 | SMILES
1 | 202 nM | O[C@@H]1CCC[C@H]1Nc1nc(NCc2ccc(-c3ccccn3)cc2)ncc1C(F)(F)F [Compound 152]

Same assay, conditions: Homo sapiens, HGC-27, 24 h, HGC27 cells, 24 hours, CellTiter-Glo; read-out: HGC27 CTG IC50

Row | IC50 | SMILES
2 | 429 nM | CC[C@H](CO)Nc1nc(NCc2ccc(-c3ccccn3)cc2)c2ncn(C(C)C)c2n1 [CR8, reference compound]
3 | 158 nM | CC[C@H](CO)Nc1nc(NCc2ccc(-c3ccccn3)cc2)ncc1C(F)(F)F [Compound 25]
4 | 379 nM | CN1CCC(Oc2nc(NCc3ccc(-c4ccccn4)cc3)ncc2C(F)(F)F)CC1 [Compound 35]
5 | 341 nM | Cc1ccnc(-c2ccc(CNc3ncc(C(F)(F)F)c(OC4COC4)n3)cc2)c1 [Compound 40]
6 | 266 nM | OCc1ccnc(-c2ccc(CNc3ncc(C(F)(F)F)c(OC4COC4)n3)cc2)c1 [Compound 43]
7 | 251 nM | Cc1cc(CO)cc(-c2ccc(CNc3ncc(C(F)(F)F)c(OC4COC4)n3)cc2)n1 [Compound 64]
8 | 185 nM | Cc1cc(CO)nc(-c2ccc(CNc3ncc(C(F)(F)F)c(OC4COC4)n3)cc2)c1 [Compound 69]
9 | 160 nM | O[C@@H]1CCC[C@H]1Nc1nc(NCc2ccc(-c3ccccn3)cc2)ncc1C(F)(F)F [Compound 70]
10 | 405 nM | CC(C)(C)[C@H](CO)Nc1nc(NCc2ccc(-c3ccccn3)cc2)ncc1C(F)(F)F [Compound 85]
11 | 486 nM | O[C@H]1CC[C@H]1Nc1nc(NCc2ccc(-c3ccccn3)cc2)ncc1C(F)(F)F [Compound 91]
12 | 275 nM | OCC(CO)Nc1nc(NCc2ccc(-c3ccccn3)cc2)ncc1C(F)(F)F [Compound 104]
13 | 251 nM | COc1ccnc(-c2ccc(CNc3ncc(C(F)(F)F)c(OC4COC4)n3)cc2)c1 [Compound 114]
14 | 479 nM | C[C@@H](Nc1ncc(C(F)(F)F)c(OC2COC2)n1)c1ccc(-c2ccccn2)cc1 [Compound 119]
15 | 191 nM | OCc1cc(CO)nc(-c2ccc(CNc3ncc(C(F)(F)F)c(OC4COC4)n3)cc2)c1 [Compound 125]
16 | 170 nM | C[C@@H](O)[C@@H](CO)Nc1nc(NCc2ccc(-c3ccccn3)cc2)ncc1C(F)(F)F [Compound 126]
17 | 446 nM | NC(=O)[C@@H](CO)Nc1nc(NCc2ccc(-c3ccccn3)cc2)ncc1C(F)(F)F [Compound 127]
18 | 77 nM | C=Cc1ccnc(-c2ccc(CNc3ncc(C(F)(F)F)c(OC4COC4)n3)cc2)c1 [Compound 129]
19 | 100 nM | C[C@@H](O)[C@@H](C)Oc1nc(NCc2ccc(-c3ccccn3)cc2)ncc1C(F)(F)F [Compound 131]
20 | 370 nM | CC[C@@H](Nc1nc(NCc2ccc(-c3ccccn3)cc2)ncc1C(F)(F)F)C(N)=O [Compound 134]

Row | IC50 | SMILES
21 | 427 nM | CCc1ccnc(-c2ccc(CNc3ncc(C(F)(F)F)c(OC4COC4)n3)cc2)c1 [Compound 135]
22 | 254 nM | N#Cc1ccnc(-c2ccc(CNc3ncc(C(F)(F)F)c(OC4COC4)n3)cc2)c1 [Compound 138]
23 | 281 nM | CS(=O)(=O)c1cccc(-c2nc(NCc3ccc(-c4ccccn4)cc3)ncc2C(F)(F)F)c1 [Compound 146]
24 | 410 nM | NS(=O)(=O)c1cncc(-c2nc(NCc3ccc(-c4ccccn4)cc3)ncc2C(F)(F)F)c1 [Compound 147]
25 | 238 nM | CC[C@H](CO)Oc1nc(NCc2ccc(-c3ccccn3)cc2)ncc1C(F)(F)F [Compound 149]
26 | 197 nM | O[C@H]1COC[C@H]1Oc1nc(NCc2ccc(-c3ccccn3)cc2)ncc1C(F)(F)F [Compound 151]
27 | 169 nM | O[C@H]1CCCC[C@H]1Nc1nc(NCc2ccc(-c3ccccn3)cc2)ncc1C(F)(F)F [Compound 156]
28 | 49 nM | COC[C@H](CO)Nc1nc(NCc2ccc(-c3ccccn3)cc2)ncc1C(F)(F)F [Compound 158]
29 | 45 nM | OC[C@H](Nc1nc(NCc2ccc(-c3ccccn3)cc2)ncc1C(F)(F)F)C1CC1 [Compound 159]
30 | 48 nM | Cc1cc(CO)cc(-c2ccc(CNc3ncc(C(F)(F)F)c(N[C@H](CO)[C@@H](C)O)n3)cc2)n1 [Compound 160]
31 | 193 nM | CC[C@@H](Nc1nc(NCc2ccc(-c3cc(CO)cc(C)n3)cc2)ncc1C(F)(F)F)C(N)=O [Compound 161]
32 | 393 nM | CC[C@@H](Nc1nc(NCc2ccc(-c3cc(C)cc(CO)n3)cc2)ncc1C(F)(F)F)C(N)=O [Compound 163]
33 | 386 nM | O[C@H]1CNCC1Oc1nc(NCc2ccc(-c3ccccn3)cc2)ncc1C(F)(F)F (some centres unmarked) [Compound 164]
34 | 89 nM | C[C@H](CO)Oc1nc(NCc2ccc(-c3ccccn3)cc2)ncc1C(F)(F)F [Compound 165]
35 | 24 nM | C[C@@H](Oc1nc(NCc2ccc(-c3ccccn3)cc2)ncc1C(F)(F)F)C(N)=O [Compound 166]
36 | 49 nM | C[C@@H](Oc1nc(NCc2ccc(-c3ccccn3)cc2)ncc1C(F)(F)F)C(C)(C)O [Compound 167]
37 | 60 nM | C[C@@H](O)[C@@H](C)Oc1nc(NCc2ccc(-c3cc(CO)cc(CO)n3)cc2)ncc1C(F)(F)F [Compound 168]
38 | 53 nM | CC[C@@H](Nc1nc(NCc2ccc(-c3cc(CO)cc(CO)n3)cc2)ncc1C(F)(F)F)C(N)=O [Compound 169]
39 | 48 nM | C[C@@H](O)[C@@H](CO)Nc1nc(NCc2ccc(-c3cc(CO)cc(CO)n3)cc2)ncc1C(F)(F)F [Compound 170]

Row | IC50 | SMILES
40 | 25 nM | C[C@@H](O)[C@@H](CO)Nc1nc(NCc2ccc(-c3cccc(CO)n3)cc2)ncc1C(F)(F)F [Compound 171]
41 | 406 nM | C[C@@H](O)[C@@H](CO)Nc1nc(NCc2ccc(-c3cc(CO)cc(CO)n3)cc2)ncc1C#N [Compound 175]
42 | 171 nM | CC[C@@H](Nc1nc(NCc2ccc(-c3cc(CO)cc(CO)n3)cn2)ncc1C(F)(F)F)C(N)=O [Compound 176]
43 | 193 nM | C[C@@H](O)[C@@H](CO)Nc1nc(NCc2ccc(-c3cc(CO)cc(CO)n3)cn2)ncc1C(F)(F)F [Compound 177]
44 | 108 nM | N#Cc1cc(CO)nc(-c2ccc(CNc3ncc(C(F)(F)F)c(OC4COC4)n3)cc2)c1 [Compound 179]
45 | 63 nM | C[C@@H](Nc1ncc(C(F)(F)F)c(OC2COC2)n1)c1ccc(-c2cc(CO)cc(CO)n2)cc1 [Compound 181]
46 | 68 nM | C[C@@H](O)[C@@H](C)Oc1nc(NCc2ccc(-c3cc(CO)cc(CO)n3)cn2)ncc1C(F)(F)F [Compound 182]
47 | 258 nM | C[C@@H](Nc1nc(NCc2ccc(-c3ccccn3)cc2)ncc1C(F)(F)F)C(N)=O [Compound 188]
48 | 25 nM | C[C@@H](Nc1nc(NCc2ccc(-c3ccccn3)cc2)ncc1C(F)(F)F)C(=O)N(C)C [Compound 192]
49 | 39 nM | CNC(=O)[C@@H](C)Nc1nc(NCc2ccc(-c3ccccn3)cc2)ncc1C(F)(F)F [Compound 193]
50 | 278 nM | C[C@@H](O)[C@@H](C)Nc1nc(NCc2ccc(-c3cc(CO)cc(CO)n3)cc2)ncc1C(F)(F)F [Compound 194]
51 | 25 nM | CC[C@@H](Nc1nc(NCc2ccc(-c3ccccn3)cc2)ncc1C(F)(F)F)[C@@H](C)O [Compound 195]
52 | 439 nM | CC[C@@H](Nc1nc(NCc2ccc(-c3cc(CO)cc(CO)n3)cc2)ncc1C(F)(F)F)[C@@H](C)O [Compound 198]
53 | 205 nM | CC[C@H](O)[C@@H](C)Nc1nc(NCc2ccc(-c3ccccn3)cc2)ncc1C(F)(F)F [Compound 199]
54 | 367 nM | C[C@@H](O)[C@@H](CN1CCCC1)Nc1nc(NCc2ccc(-c3ccccn3)cc2)ncc1C(F)(F)F [Compound 202]
55 | 65 nM | NC(=O)[C@H](Nc1nc(NCc2ccc(-c3ccccn3)cc2)ncc1C(F)(F)F)C1CC1 [Compound 206]
56 | 34 nM | CC(C)[C@@H](Nc1nc(NCc2ccc(-c3ccccn3)cc2)ncc1C(F)(F)F)C(N)=O [Compound 210]
57 | 110 nM | NC(=O)[C@H](Nc1nc(NCc2ccc(-c3ccccn3)cc2)ncc1C(F)(F)F)C1CCC1 [Compound 211]
58 | 292 nM | CC[C@H](CN)Nc1nc(NCc2ccc(-c3ccccn3)cc2)ncc1C(F)(F)F [Compound 214]

Same assay, conditions: Homo sapiens, HGC-27, 24 h, read-out: HGC27 CTG IC50

Row | SMILES | IC50
59 | FC(F)(F)c1cnc(NCc2ccc(-c3cnccn3)cc2)nc1OC1COC1 [Compound 21] | 155 nM
60 | C[C@@H](O)[C@H](Nc1nc(NCc2ccc(-c3ccccn3)cc2)ncc1C(F)(F)F)C(N)=O [Compound 207] | 103 nM
61 | C[C@H](O)[C@@H](Nc1nc(NCc2ccc(-c3ccccn3)cc2)ncc1C(F)(F)F)C(N)=O [Compound 212] | 187 nM
62 | C[C@@H](O)[C@@H](Nc1nc(NCc2ccc(-c3ccccn3)cc2)ncc1C(F)(F)F)C(N)=O [Compound 213] | 123 nM
